Test results taken from publication PMC10298982, “Stability Characterization of the Novel Anti-Cancer HM-10/10 HDL-Mimetic Peptide” (International Journal of Molecular Sciences, 2023).
Like-named read-outs stand apart in the source and are kept apart here. Ends that are not written are not given here.

Tests used:
[1] = system: CYP2B6; experiment: CYP2B6 induction (mRNA expression) in single-donor human hepatocytes; type: in vitro ADME
Experimental: RNA isolation and quantification: E-Z 96 Total RNA Kit (Omega Bio-tek, Catalog No. R1034-02) was used for RNA isolation and Quant-iT RNA assay kit (ThermoFisher, Catalog No. Q33140) was used for RNA quantification. The plates were removed from a −80 °C freezer and equilibrated to room temperature. RNA was extracted using the manufacturer’s recommended protocol. Eighty-one microliters of 100% ethanol were added into each well containing 150 µL of lysed sample to make a final ethanol concentration at 35%.
cDNA generation: For cDNA generation, a High-Capacity cDNA Reverse Transcription Kit (Applied Biosystems, Catalog No. 4319983) and QuantStudio 3 PCR system (Applied Biosystems) were used. In this step, 2X Reverse Transcription Master Mix was prepared using the contents of the kit. Then, 10 µL of total RNA was added to 10 µL of 2X Reverse Transcription Master Mix in a microplate and the plate was sealed. This plate was then run in a thermocycler to generate cDNA.
Real time PCR: SsoAdvanced Universal SYBR® Green Supermix (BIO-RAD, Catalog No. 172-5270) and the QuantStudio 3 Real-Time PCR system (Applied Biosystems) were used to perform real-time PCR on the generated cDNA. In this step, a PCR mix was prepared using PCR Supermix, SYBR® primers for the targeted genes, and nuclease-free water. Two microliters of ten-fold diluted cDNA samples (5 µL of cDNA into 45 μL of nuclease-free water) were added to 8 µL of PCR Mix in a microplate and sealed. This plate was then run through the Real-Time PCR system to generate the mRNA expression data.
• Human GAPDH • F: […] • R: […] • Human CYP1A2 • Unique Assay ID: qHsaCID0015160 • Chromosome Location: 15:75045562-75047256 • Human CYP2B6 • F: […] • R: […] • Human CYP3A4 • F: […] • R: […]

[2] = system: CYP1A2; experiment: CYP1A2 induction (enzyme activity) in single-donor human hepatocytes; type: in vitro ADME; conditions: for Fold Increase (Enzyme Activity) Mean: mean of three lots
Experimental: The transport medium was replaced with 200 μL of warm (37 °C) incubation medium (InVitroGRO HI, BioIVT Catalog No. Z99009) and the plate was placed in a humidified 5% carbon dioxide incubator at 37 °C for 24 h.
In addition, test article vehicle (PBS) was added to warm (37°C) InVitroGRO HI Medium in a 5:95 (v:v) ratio. […] The plates were removed from the incubator and the hepatocytes were prepared for the induction assay by replacing the cell culture medium with medium containing either the test article, a control inducer, or vehicle control (200 µL per well). The hepatocyte plates were returned to the cell culture incubator and incubated for 24 h.
On Day 3, induction was repeated following the same steps as described above for the previous day, and plates were returned to the cell culture incubator for an additional 24 h.
After aliquots were taken to measure test article stability, all the remaining medium from each well in the hepatocyte plate was removed, all wells were washed once using 200 μL of blank assay buffer, and then 100 μL of the 1000-fold diluted substrate solutions were added to the appropriate wells. The assay plate was returned to the humidified 5% carbon dioxide incubator at 37 °C for 1 h incubation.
At the end of the incubation time, 100 μL of mRNA lysis buffer was added to each well to stop the reaction. Fifty microliters of this reaction mixture were transferred into a new plate and quenched with 200 μL of ice-cold acetonitrile containing a CYP-specific stable labeled internal standard (250 ng/mL acetaminophen-d4, 250 ng/mL hydroxybupropion-d6, or 250 ng/mL hydroxytestosterone-d3). After removal of the aliquots from the plate for enzyme activity determination, the assay plates were sealed and stored in a −70 °C freezer until use for RT-PCR, mRNA analysis.
For the induction assay samples, an aliquot (50 µL) of the supernatant was transferred to a new plate and diluted with 100 µL Milli-Q water. For the test article stability samples, an aliquot (50 µL) of the supernatant was transferred to a new plate and diluted with 60 µL 0.1% formic acid in Milli-Q water. These samples for the enzyme activity assay and article stability test were refrigerated for storage until analysis. […]
HM1010: Induction Potential of Cytochrome P450 Enzymes
(CYP1A2, CYP2B6 and CYP3A4) Using Human Cryopreserved Hepatocytes
Testing Facility Study No.
The purpose of this in-vitro study was to determine the induction potential of HM1010 on human
cytochrome P450 (CYP) isoenzyme (1A2, 2B6 and 3A4) activity. The study design is
Matrix: Inducible cryopreserved human hepatocytes three single-donor lots
Assay Buffer: InVitroGRO KHB
Substrates: Phenacetin (1A2), Bu propion (2B6), and Testosterone (3A4)
Assay conditions: 48 hours at 37°C in humidified 5% carbon dioxide incubator
Analysis: LC-MS/MS (enzyme activity) and mRNA analysis

[3] = Test article stability over 24 h incubation with hepatocytes in the induction assay; type: in vitro ADME, human; conditions: average of three lots, both days
Experimental: For each 24 h incubation, 50 µL of each medium containing the test article (HM-10/10) were collected at the start (T0) and end of 24 h incubation (T24) and quenched with 300 µL of 1% perchloric acid in methanol and 50 µL of internal standard cocktail (carbutamide, chrysin, and glyburide each at 1.71 µg/mL water). These samples were analyzed to test the stability of HM-10/10 after 24 h incubation with the hepatocytes. The quenched sample plates were stored covered in a −20 °C freezer.

[4] = Metabolic stability in cryopreserved human hepatocytes; type: in vitro ADME; conditions: Human hepatocytes 0.5 million cells/mL; for CLint scaled: hepatocytes
[5] = system: beagle dog plasma proteins; experiment: Protein binding in beagle dog plasma (ultracentrifugation); conditions: Beagle dog plasma (K2EDTA); 2 μM; 2.5 h at 37 °C
[6] = as above; conditions: beagle, dog, plasma (K2EDTA), pH 7.4

LRKLRKRLLRLVGRQLEEFL [HM-10/10, LRKLRKRLLRLVGRQLEEFL]
Comments (mRNA induction) ([1]; 2 µM): Induction Observed | Fold Increase (mRNA Expression) Lot HH1086 ([1]; 2 µM): 2.03 fold | Fold Increase (mRNA Expression) Lot HH1142 ([1]; 2 µM): 9.76 fold | Fold Increase (mRNA Expression) Lot HH1144 ([1]; 2 µM): 2.86 fold | Fold Increase (mRNA Expression) Mean of 3 Lots ([1]; 2 µM): 4.88 fold | Comments (mRNA induction) ([1]; 10 µM): Induction Observed | Fold Increase (mRNA Expression) Lot HH1086 ([1]; 10 µM): 2.54 fold | Fold Increase (mRNA Expression) Lot HH1142 ([1]; 10 µM): 7.08 fold | Fold Increase (mRNA Expression) Lot HH1144 ([1]; 10 µM): 3.33 fold | Fold Increase (mRNA Expression) Mean of 3 Lots ([1]; 10 µM): 4.32 fold | Comments (mRNA induction) ([1]; 25 µM): Induction Observed | Fold Increase (mRNA Expression) Lot HH1086 ([1]; 25 µM): 1.26 fold | Fold Increase (mRNA Expression) Lot HH1142 ([1]; 25 µM): 5.04 fold | Fold Increase (mRNA Expression) Lot HH1144 ([1]; 25 µM): 1.92 fold | Fold Increase (mRNA Expression) Mean of 3 Lots ([1]; 25 µM): 2.74 fold | Fold Increase (Enzyme Activity) Lot HH1086 ([2]; 2 µM): 0.682 fold | Fold Increase (Enzyme Activity) Lot HH1142 ([2]; 2 µM): 1.33 fold | Fold Increase (Enzyme Activity) Lot HH1144 ([2]; 2 µM): 1.73 fold | Fold Increase (Enzyme Activity) Mean ([2]; 2 µM): 1.25 fold | Fold Increase (Enzyme Activity) Lot HH1086 ([2]; 10 µM): 1.88 fold | Fold Increase (Enzyme Activity) Lot HH1142 ([2]; 10 µM): 5.19 fold | Fold Increase (Enzyme Activity) Lot HH1144 ([2]; 10 µM): 3.32 fold | Fold Increase (Enzyme Activity) Mean ([2]; 10 µM): 3.46 fold | Fold Increase (Enzyme Activity) Lot HH1086 ([2]; 25 µM): 2.46 fold | Fold Increase (Enzyme Activity) Lot HH1142 ([2]; 25 µM): 5.98 fold | Fold Increase (Enzyme Activity) Lot HH1144 ([2]; 25 µM): 3.65 fold | Fold Increase (Enzyme Activity) Mean ([2]; 25 µM): 4.03 fold | Average % Stability ([3]; 10 µM): 0.7% | remaining at 24 h, 2 µM ([3]; human, plated human hepatocytes, three single-donor lots, 2 µM): 0.6% | remaining at 24 h, 25 µM ([3]; human, plated human hepatocytes, three single-donor lots, 25 µM): 0.3% | % Remaining at 30 min ([4]; 2 μM): 2.5% | half-life at 2 µM ([4]; cryopreserved hepatocytes): 5.28 min | remaining at 0.5 h, 2 µM ([4]; human, cryopreserved hepatocytes, read-out: % Remaining at 30 min): 2.47% | CLint scaled ([4]; human, 2 μM, read-out: CLint (L/hr/kg) (converted)): 42.5 L/h/kg | CLint scaled ([4]; human, 2 μM, read-out: CLint (mL/min/kg)): 42.5 L/h/kg | % Protein Bound Mean ± SD [5]: 35.2 ± 26.5% | % Protein Free Mean ± SD [5]: 64.8 ± 26.5% | fraction unbound at 2.5 h, 2 µM [6]: 0.648 ± 0.265 | remaining at 2.5 h, 2 µM [6]: 29.2%
